Data reported in PubChem BioAssay (NCI).
Values joined by “and” are separate entries in the source; they are usually repeats but may differ in a detail not shown here. Equal values may be shown once.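 A five-concentration, 48-hour dose response in 96-well plates underlies each endpoint, interpolated linearly between surrounding concentrations. Here, GI50 denotes the concentration required for 50% inhibition of growth. The concentration for full growth arrest is given as TGI.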

Test system: MDA-MB-468 breast
Experiment: inhibition of tumour cell growth, NCI panel, 48 h

COc1ccc(CNc2c3ccccc3nc3ccc(OC)cc23)cc1
GI50: 1.82 µM
TGI: 4.31 µM

Cc1ccc(NC2=C(Cl)C(=O)c3nc(C)ccc3C2=O)c(C)c1
GI50: 1.61 µM
TGI: 3.32 µM

Nc1cc(-c2cccc(OC(F)(F)F)c2)nc2ccc(N3CCCC3)cc12
GI50: 0.0337 µM and 0.0304 µM and 0.0288 µM
TGI: 0.237 µM and 0.115 µM and 0.136 µM

Cn1ccnc1C(=O)/C=C/c1ccc(CNC(=O)c2ccc(F)cc2)cc1
GI50: 1.66 µM
TGI: 7.04 µM

COc1ccc(-c2nc3ncccn3c2/C=C/C(=O)c2cc(OC)c(OC)c(OC)c2)cc1
GI50: 1.81 µM
TGI: 3.65 µM

NC(=O)c1ccc2c(-c3ccnc(NCCCO)n3)c(-c3ccc(F)cc3)nn2c1
GI50: > 16.1 µM
TGI: > 25 µM

C=CCN1C=CC(=O)[C@H](O[Si](C)(C)C(C)(C)C)[C@@H]1/C=C/c1ccccc1
GI50: 8.27 µM
TGI: 22.2 µM

Cc1cc(N2CCN(c3ccnc4cc(Cl)ccc34)CC2)nc(NC2CCCCC2)n1
GI50: 1.59 µM
TGI: 3.88 µM

O=C(CC12CC3CC(CC(C3)C1)C2)NCCOCCOCCOCCNC(=O)c1cc2c(o1)C(=O)c1ccccc1C2=O
GI50: 1.39 µM
TGI: 4.36 µM

O=C(N/N=C/c1ccccc1Cl)c1ccccc1Nc1ccnc(C(F)(F)F)c1
GI50: 2.25 µM
TGI: 11.1 µM

C=C[C@H]1CCC/C=C/[C@@H]2C[C@H](O)C[C@H]2[C@H](O)/C=C/C(=O)O1
GI50: < 0.01 µM
TGI: < 0.0153 µM

CCCN1CCN(c2ccc3nc(-c4ccc5nc(-c6cc(OC)ccc6OC)[nH]c5c4)[nH]c3c2)CC1
GI50: 1.7 µM
TGI: 3.31 µM

CN(C)C1CCN(C(=O)c2ccc(NC(=O)Nc3ccc(-c4nc(N5CCOCC5)nc(N5CCOCC5)n4)cc3)cc2)CC1
GI50: 0.00749 µM and 0.013 µM
TGI: 0.0636 µM and 0.185 µM

c1cc(OCCN2CCCCC2)ccc1CNc1ccc2nc(CCC3CCCCC3)[nH]c2c1
GI50: 1.58 µM
TGI: 3.84 µM

COc1c(Cl)c2c(c(OC)c1OC)-c1ccc(SC)c(=O)cc1[C@@H](NC(=O)OCC(F)(F)F)CC2
GI50: < 0.01 µM
TGI: 17.3 µM

O=P([O-])(O)OP(=O)([O-])O.[NH-][C@@H]1CCCC[C@H]1[NH-].[Pt+4]
GI50: 21.5 µM and 8.19 µM
TGI: > 100 µM and 27.7 µM

Cc1cc(N2CCCC2)nc(NC2CCCC(Nc3ccnc4cc(Cl)ccc34)C2)n1 (configuration not stated)
GI50: 1.41 µM
TGI: 3.14 µM

C[C@@H]1N=C(c2ccc(Br)cc2)Nc2nc3ccccn3c2C1=O
GI50: 1.98 µM
TGI: 5.12 µM

Cc1cc(-c2nnc(N)nc2-c2ccc(F)cc2)cc(Cl)n1
GI50: 20.6 µM
TGI: > 100 µM

O=CN1N=C(c2ccc(Cl)cc2)CC1c1cccc(Nc2ccnc3cc(Cl)ccc23)c1 (configuration not stated)
GI50: 0.284 µM
TGI: 3.93 µM

CCN(CC)CCOc1ccc(C(=C(C)Cc2ccc(OC)cc2)c2ccc(OCCN(CC)CC)cc2)cc1
GI50: 3.27 µM
TGI: 6.65 µM

O=c1[nH]ccc2nc(N3CCC(O)CC3)nc(Nc3cccc(C(F)(F)F)c3)c12
GI50: 1.76 µM
TGI: 7.11 µM

O=C(Nc1ccc(F)cc1F)c1cc(Br)ccc1O
GI50: 2.54 µM
TGI: 6.91 µM

CCN=c1cc2sc3cc(NCC)c(C)cc3nc-2cc1C
GI50: 0.86 µM
TGI: 5.57 µM

O=C([O][Hg][CH2]C1COCC([CH2][Hg][O]C(=O)c2ccccc2)O1)c1ccccc1 (configuration not stated)
GI50: 1.72 µM
TGI: 3.24 µM

CCOc1ccc(Nc2nc(-c3ccc4c(c3)NC(=O)CO4)cs2)cc1
GI50: 2.46 µM
TGI: 8.04 µM

Cc1ccc(-c2nc(N)nc3c2nnn3Cc2cccc(CO[C@H]3CCOC3)n2)o1
GI50: 44.4 µM
TGI: > 100 µM

COc1cc2c(Oc3ccc4[nH]c(C)cc4c3F)ccnc2cc1OCC1(N)CC1
GI50: 0.312 µM
TGI: 1.67 µM

CC1(C)CC(n2cnc(-c3ccc(F)cc3)c2-c2ccnc(N)n2)CC(C)(C)N1
GI50: 4.23 µM
TGI: 24.2 µM

COC(=O)c1c2c(c(C)[n+]([O-])c1C)C(=O)C=C(NCc1ccc(OC)cc1)C2=O
GI50: 0.679 µM
TGI: 2.01 µM

O=S(=O)(c1ccc(N=C2NN=C(c3c[nH]c4ccccc34)CS2)cc1)N1CCOCC1
GI50: 5.46 µM
TGI: > 100 µM
